The values that follow come from patent EP0567324A1, “Medicaments for treating gar-transformylase-dependent tumors” (ELI LILLY AND COMPANY, priority 1992, dated 1993).

Data set [1] concerns aggressive soft tissue sarcoma characterized as either a malignant Schwannoma or a tendosynovial sarcoma. The conditions noted are these: human, in vivo.
Data set [2] has as its system adenocarcinoma originating in the ethmoid sinus. Particulars: human, in vivo.

The structures appear in SMILES notation.

In the case of `Nc1nc2c(c(=O)[nH]1)C[C@@H](CCc1ccc(C(=O)N[C@@H](CCC(=O)O)C(=O)O)cc1)CN2` [Lometrexol, 5,10-dideaza-5,6,7,8-tet-rahydrofolic acid], in data set [1], the “clinical response in the irradiated field” value is “dramatic”, the “lometrexol retention in the patients body” value is listed as “prolonged”, the “mucositis due to the drug” value was “mild mucositis” and the “thrombocytopenia to” value is 55,000. In data set [1], the “tumor course after lometrexol, before radiation” value was “continued to rapidly progress”. Besides, in data set [2], the “change of massively enlarged liver (hepatic metastases) after treatment” value is “marked shrinkage”; the “duration of prolonged thrombocytopenia and anemia” value was “over 7 weeks”; the “persistent anemia at a Hgb of” value was determined as 5.4.
